MIC data for 1 molecule are collected here from US20250051300A1, “GRAM-NEGATIVE SPECIFIC ANTIBIOTICS SPARING EFFECT ON GUT MICROBIOME” (THE BOARD OF TRUSTEES OF THE UNIVERSITY OF ILLINOIS, priority 2021, published 2025).

What all share (experiment): MIC, micro-dilution broth method (CLSI)
What all share (assay type): cell-based

One experiment concerns Escherichia coli. Particulars: Escherichia coli.
In a further experiment the test system is Klebsiella pneumoniae. To be noted: Klebsiella pneumoniae, read-out: MIC.
A further experiment relates to Enterobacter cloacae. Particulars: Enterobacter cloacae, read-out: MIC.

≈ marks a conversion by molar mass, not a printed value. Read-outs that look alike come from different tables or passages of the source.

As to `Cc1cc(-c2nc(C(C)(C)C)[nH]c2-c2ccc3c(c2)OCCO3)ccn1` [Compound 1, 4-(2-(tert-butyl)-5-(2,3-dihydrobenzo[b][1,4]dioxin-6-yl)-1H-imidazol-4-yl)-2-methylpyridine], the minimal inhibitory concentration (MIC) in the experiment on Escherichia coli (ATCC25922, E. coli ATCC 25922, read-out: MIC) was 8 µg/mL (≈ 22.9 µM); with Escherichia coli (E. coli AR-0549, read-out: MIC), 16 µg/mL (≈ 45.8 µM); against Escherichia coli (E. coli ΔrfaC JW3596 (permeability mutant)), 0.25 µg/mL (≈ 0.715 µM); in the experiment with Escherichia coli (E. coli ΔtolC JW5503 (efflux-deficient)), 0.03 µg/mL (≈ 0.0859 µM); in the experiment on Klebsiella pneumoniae (ATCC27736, K. pneumoniae ATCC 27736) it was 16 µg/mL (≈ 45.8 µM); in the experiment with Klebsiella pneumoniae (ATCCBAA1705, K. pneumoniae ATCC BAA-1705) it was above 128 µg/mL. The MIC is 32 µg/mL (≈ 91.6 µM) with Klebsiella pneumoniae (K. pneumoniae AR-0040); above 128 µg/mL in the experiment on Enterobacter cloacae (ATCC29893, E. cloacae ATCC 29893); 32 µg/mL (≈ 91.6 µM) with Enterobacter cloacae (ATCCBAA2468, E. cloacae ATCC BAA-2468); 64 µg/mL (≈ 183 µM) with Enterobacter cloacae (E. cloacae AR-0163).

A word on the MIC: it is the lowest concentration that inhibits growth of the organism.
